Reference: patent US6004928A, “Method of treating hyperlipidemia” (Biomeasure, Incorporated, priority 1998, dated 1999)
Positions of bridges follow the written chain, without caps; N, C: chain ends. Non-standard residues stand in square brackets, D forms with d. Residues, ends and D or L forms follow the SMILES beside them.

Tests used:
alloxan diabetic dogs = conditions: cited from earlier work
acromegalics = conditions: cited from earlier work
normal humans = conditions: cited from earlier work
[1] = system: fatty (fa/fa) Zucker rats; assay: Reduction of glycerol and triglycerides, chronic treatment in fatty Zucker rats; format: in vivo, rat
Text: The obese (fa/fa) Zucker and its derivative in the Zucker diabetic fatty (ZDF/Drt-fa) are excellent models of diabetes-induced dyspilidemia (Shafrir, E., Diabetes/Metabolism Rev. 8:179-208 (1992); Peterson, R. G., et al., ILAR News 32:16-19 (1990)). The animals develop progressive hypertriglyceridemia and hypercholesterolemia.
Eleven male fatty Zucker rats weighing about 450 grams were randomly divided into 2 groups and their initial body weights recorded. The animals were housed in pairs in a normal 12 hour light/dark cycle at 20±2° C. and fed a standard laboratory rat diet (Beekay rat and mouse diet, Bantin & Kingman, Hull, Humberside, U.K.) overnight ad libitum.
For the group assigned to receive drug treatment, the rats received BIM-23268C at 3 mg/kg, by subcutaneous injection twice a day at 10:00 a.m. and 5:00 p.m. The other group was treated with a subcutaneous injection of 0.1 ml/100 g of saline twice a day at 10:00 a.m. and 5:00 p.m. The animals were subjected to the BIM-23268 or saline treatment for a total of six days.
On the last day of treatment (day 6), food was removed at 5:00 p.m. and the rats fasted overnight. At 9:00 a.m. the next day, the animals were subjected to a glucose challenge, given as a 0.8 gram/kg of glucose orally. Periodic 400 ul of blood samples were taken from the tail vein (Peterson, R. G., ILAR News 32:16-19 (1990)) at 60 min. and 30 min. before, and at 30, 60, 90, and 120 min. after the administration of the glucose challenge (08. gram/kg orally). Aprotinin (Traysylol, Bayer UK, Hayward's Heath, W. Sussex, U.K.) and heparin (Sigma Chemical Co., Poole, Dorset, U.K.) were added to the blood samples to a final concentration of 400 KIU/ml and 100 units/ml, respectively. Plasma fractions were prepared from these samples by centrifugation at 400×G in a microfuge, for the estimation of triglycerides and glycerol. Samples were then stored at -80° C. until assayed.
Plasma glycerol and triglycerides were determined using the Sigma Enzymatic (Tinder) calorimetric assay kit (Cat #337-B, Sigma Chemical Co., Poole, Dorset, U.K.) and measuring absorbance at 540 nm in a spectrophotometer.

hSSTR-3 = molecular target: T1, hSSTR-3 (Homo sapiens, UniProt P32745); assay: Somatostatin receptor binding assay, [125I-Tyr11]somatostatin-14, transfected CHO-K1 membranes; conditions: 0.05 nM [125I-Tyr11]somatostatin-14, 30 min at 30° C.
T1 construct: expressed in transfected cells; crude membranes
T1 sequence (P32745 whole entry): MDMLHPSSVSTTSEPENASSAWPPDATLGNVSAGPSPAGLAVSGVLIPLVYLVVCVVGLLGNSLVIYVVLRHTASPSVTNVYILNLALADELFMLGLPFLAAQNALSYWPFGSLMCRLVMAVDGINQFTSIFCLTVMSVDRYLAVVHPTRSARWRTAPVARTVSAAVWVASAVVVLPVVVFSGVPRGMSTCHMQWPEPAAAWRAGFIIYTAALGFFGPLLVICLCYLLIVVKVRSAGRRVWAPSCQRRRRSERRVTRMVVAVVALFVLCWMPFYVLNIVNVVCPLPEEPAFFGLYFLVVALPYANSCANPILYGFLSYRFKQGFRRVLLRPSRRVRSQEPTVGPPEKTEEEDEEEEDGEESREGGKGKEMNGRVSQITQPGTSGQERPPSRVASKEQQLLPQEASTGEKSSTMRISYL
Description: (§1) CHO-K1 (ovary, Chinese hamster) cells were obtained from ATCC (ATCC No. CCL 61). The cells were grown and maintained in Ham's F12 media (Gibco BRL, Grand Island, N.Y.) supplemented with 10% fetal bovine serum under standard tissue culture conditions. For transfection, the cells were seeded at a density 1×10^6 /60-cm plate (Baxter Scientific Products, McGraw Park, Ill.). […] CHO-K1 clonal cell lines that have stably inherited the transfected DNA were selected for growth in Ham's F12 media containing 10% fetal bovine serum and 0.5 mg/ml of G418 (Sigma). The cells were ring-cloned and expanded in the same media for analysis.
(§2) Transfected cell lines expressing the human SSTR receptors were clonally expanded in culture and used in the following SSTR binding protocol.
(§3) Crude membranes were prepared by homogenization of the transfected cells in 20 ml of ice-cold 50 mM Tris-HCl with a POLYTRON homogenizer (setting 6, 15 sec). Buffer was added to obtain a final volume of 40 ml, and the homogenate was centrifuged in a Sorval SS-34 rotor at 39,000 g for 10 min at 0-4° C. The resulting supernatant was decanted and discarded. The pellet was rehomogenized in ice-cold buffer, diluted, and centrifuged as before. The final pellet was resuspended in the 10 mM Tris HCl and held on ice for the receptor binding assay.
The final assay volume was 0.3 ml. […]

hSSTR-4 = molecular target: T2, hSSTR-4 (Homo sapiens, UniProt P31391); assay: as above; conditions: 0.05 nM [125I-Tyr11]somatostatin-14, 30 min at 30° C.
T2 construct: expressed in transfected cells; crude membranes
T2 sequence (P31391 whole entry): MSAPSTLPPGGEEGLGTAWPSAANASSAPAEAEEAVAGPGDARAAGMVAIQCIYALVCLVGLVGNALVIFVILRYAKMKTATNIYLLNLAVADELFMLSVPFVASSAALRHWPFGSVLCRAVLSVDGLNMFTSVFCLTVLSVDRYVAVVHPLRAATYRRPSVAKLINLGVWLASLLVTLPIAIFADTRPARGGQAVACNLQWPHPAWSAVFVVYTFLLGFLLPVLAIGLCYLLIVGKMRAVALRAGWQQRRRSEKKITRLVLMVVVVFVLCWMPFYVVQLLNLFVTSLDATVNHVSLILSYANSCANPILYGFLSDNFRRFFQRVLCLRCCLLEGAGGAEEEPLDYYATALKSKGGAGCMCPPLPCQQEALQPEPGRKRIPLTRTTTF
Description: as §1, §2, §3
The final assay volume was 0.3 ml. […]

hSSTR-5 = molecular target: T3, hSSTR-5 (Homo sapiens, UniProt P35346); assay: as above; conditions: 0.05 nM [125I-Tyr11]somatostatin-14, 30 min at 30° C.
T3 construct: expressed in transfected cells; crude membranes
T3 sequence (P35346 whole entry): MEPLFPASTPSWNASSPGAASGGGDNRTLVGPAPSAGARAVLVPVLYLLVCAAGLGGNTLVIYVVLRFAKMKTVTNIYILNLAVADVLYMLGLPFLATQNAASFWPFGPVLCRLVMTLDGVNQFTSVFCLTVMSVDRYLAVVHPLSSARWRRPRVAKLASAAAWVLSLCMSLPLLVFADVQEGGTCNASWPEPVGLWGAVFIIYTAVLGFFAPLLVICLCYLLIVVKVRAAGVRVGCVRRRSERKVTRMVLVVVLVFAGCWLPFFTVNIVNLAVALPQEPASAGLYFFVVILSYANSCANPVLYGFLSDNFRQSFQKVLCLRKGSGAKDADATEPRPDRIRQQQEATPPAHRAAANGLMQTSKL
Description: as §1, §2, §3
The final assay volume was 0.3 ml. […]

hSSTR-2 = molecular target: T4, hSSTR-2 (Homo sapiens, UniProt P30874); assay: as above; conditions: 0.05 nM [125I-Tyr11]somatostatin-14, 30 min at 30° C.
T4 construct: expressed in transfected cells; crude membranes
T4 sequence (P30874 whole entry): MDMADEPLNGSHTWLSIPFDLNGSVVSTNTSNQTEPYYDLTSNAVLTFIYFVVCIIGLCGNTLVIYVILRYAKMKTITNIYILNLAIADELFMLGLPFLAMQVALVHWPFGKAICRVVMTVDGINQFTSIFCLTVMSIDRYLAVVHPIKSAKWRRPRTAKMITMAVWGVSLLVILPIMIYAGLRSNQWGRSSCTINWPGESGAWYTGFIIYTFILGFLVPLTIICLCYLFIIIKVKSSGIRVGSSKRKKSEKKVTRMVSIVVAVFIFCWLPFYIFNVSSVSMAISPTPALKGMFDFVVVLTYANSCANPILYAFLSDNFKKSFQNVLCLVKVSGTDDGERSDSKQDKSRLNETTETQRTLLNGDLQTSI
Description: as §1, §2, §3
The final assay volume was 0.3 ml. […]

[2] = 3 mg/kg s.c. twice a day, 6 days, after oral glucose challenge 0.8 gram/kg, vs saline group
[3] = 3 mg/kg s.c. twice a day, 6 days, samples 30 and 60 min before oral glucose challenge

C[C@H](N)C(=O)NCC(=O)N[C@H]1CSSC[C@@H](C(=O)O)NC(=O)[C@H](CO)NC(=O)[C@H]([C@@H](C)O)NC(=O)[C@H](Cc2ccccc2)NC(=O)[C@H]([C@@H](C)O)NC(=O)[C@H](CCCCN)NC(=O)[C@H](Cc2c[nH]c3ccccc23)NC(=O)[C@H](Cc2ccccc2)NC(=O)[C@H](Cc2ccccc2)NC(=O)[C@H](CC(N)=O)NC(=O)[C@H](CCCCN)NC1=O [somatostatin]
plasma triglyceride concentrations (alloxan diabetic dogs): reduce plasma triglyceride concentrations | plasma triglyceride concentrations (acromegalics): reduce plasma triglyceride concentrations | plasma triglyceride concentrations (normal humans): reduce plasma triglyceride concentrations

C[C@@H](O)[C@@H]1NC(=O)[C@H](CCCCN)NC(=O)[C@@H](Cc2c[nH]c3ccccc23)NC(=O)[C@H](Cc2ccccc2)NC(=O)[C@H](Cc2ccccc2)NC(=O)[C@@H](N)CSSC[C@@H](C(N)=O)NC(=O)[C@H](Cc2ccccc2)NC1=O [BIM-23268, H-Cys-Phe-Phe-D-Trp-Lys-Thr-Phe-Cys-NH2] (H-CFF[dW]KTFC-NH2; disulfide 1-8 (inferred))
plasma glycerol through the 2-hour test period [1, 2]: significantly lower | plasma triglycerides through the 2-hour test period [1, 2]: significantly lower | plasma glycerol [1, 3]: significantly lowered | plasma triglycerides [1, 3]: significantly lowered | hypertriglyceridemia ([1]; 6-day treatment period at the prescribed dose): effective in reducing hypertriglyceridemia

C[C@@H](O)[C@@H]1NC(=O)[C@H](CCCCN)NC(=O)[C@@H](Cc2c[nH]c3ccccc23)NC(=O)[C@H](Cc2ccc(O)c(I)c2)NC(=O)[C@H](Cc2ccccc2)NC(=O)[C@@H](N)CSSC[C@@H](C(N)=O)NC(=O)[C@H](Cc2ccccc2)NC1=O [BIM-23313, H-Cys-Phe-Tyr(I)-D-Trp-Lys-Thr-Phe-Cys-NH2]
Ki (hSSTR-3): 25.5 nM | Ki (hSSTR-4): 55.3 nM | Ki (hSSTR-5): 0.3 nM | Ki (hSSTR-2): 4.78 nM
